The text below walks through data of ChEMBL document CHEMBL1255275, “Drug-regulated expression of Plasmodium falciparum P-glycoprotein homologue 1: a putative role for nuclear receptors” (Antimicrob Agents Chemother, 2008).

For test [1], the system named is Plasmodium falciparum. Briefly: Increase in Pgh1 expression chloroquine-sensitive Plasmodium falciparum K1Hf by Western blot relative to untreated control. The format is functional. For orientation: A western blot detects proteins with antibodies after separation by electrophoresis.
Test [2] deals with Plasmodium falciparum. As to the kind of experiment: Increase in Pgh1 expression in chloroquine-sensitive Plasmodium falciparum K1AM by Western blot relative to untreated control. Type of test: functional.
Test [3] deals with Plasmodium falciparum. Briefly: Increase in PfCRT expression in chloroquine-sensitive Plasmodium falciparum K1AM by Western blot relative to untreated control. Type of test: functional, organism-based.
Test [4] deals with Plasmodium falciparum. Briefly: Increase in PfCRT expression chloroquine-sensitive Plasmodium falciparum K1Hf by Western blot relative to untreated control. The format is functional, organism-based.
The test system of test [5] is Plasmodium falciparum. Briefly: Increase in PfCRT expression in chloroquine-resistant Plasmodium falciparum R1H6/2 by Western blot relative to untreated control. Type of test: functional, organism-based.
In test [6] the test system is Plasmodium falciparum. As to the kind of experiment: Increase in Pgh1 expression in chloroquine-resistant Plasmodium falciparum R1H6/2 by Western blot relative to untreated control. The format is functional.

Calls of active or inactive are those of the source. No cut-off for these calls is given here.

Regarding `CCC1(c2ccccc2)C(=O)NC(=O)NC1=O` [PHENOBARBITAL], the “fold change (FC)” value is given as 5.4 in the test on Plasmodium falciparum [1], 4.7 with Plasmodium falciparum [2] and 6.4 with Plasmodium falciparum [6]. Also, the result in the test with Plasmodium falciparum [3], in the test on Plasmodium falciparum [4] and in the test with Plasmodium falciparum [5] was inactive.
